{
  "source": "patent US11066455B2",
  "about": "“Tmem100 peptides and variants thereof and their use in treating or preventing diseases or conditions” (The Johns Hopkins University, priority 2014, dated 2021)",
  "key": {"TRPV1": {"target": "T1, TRPV1 (Mus musculus, UniProt Q704Y3)", "T1 construct": "calcium imaging data from the T100-Mut-treated (200 nM) DRG neurons; endogenous in cells; host or cells: primary mouse DRG neurons", "T1 sequence (Q704Y3 whole entry)": "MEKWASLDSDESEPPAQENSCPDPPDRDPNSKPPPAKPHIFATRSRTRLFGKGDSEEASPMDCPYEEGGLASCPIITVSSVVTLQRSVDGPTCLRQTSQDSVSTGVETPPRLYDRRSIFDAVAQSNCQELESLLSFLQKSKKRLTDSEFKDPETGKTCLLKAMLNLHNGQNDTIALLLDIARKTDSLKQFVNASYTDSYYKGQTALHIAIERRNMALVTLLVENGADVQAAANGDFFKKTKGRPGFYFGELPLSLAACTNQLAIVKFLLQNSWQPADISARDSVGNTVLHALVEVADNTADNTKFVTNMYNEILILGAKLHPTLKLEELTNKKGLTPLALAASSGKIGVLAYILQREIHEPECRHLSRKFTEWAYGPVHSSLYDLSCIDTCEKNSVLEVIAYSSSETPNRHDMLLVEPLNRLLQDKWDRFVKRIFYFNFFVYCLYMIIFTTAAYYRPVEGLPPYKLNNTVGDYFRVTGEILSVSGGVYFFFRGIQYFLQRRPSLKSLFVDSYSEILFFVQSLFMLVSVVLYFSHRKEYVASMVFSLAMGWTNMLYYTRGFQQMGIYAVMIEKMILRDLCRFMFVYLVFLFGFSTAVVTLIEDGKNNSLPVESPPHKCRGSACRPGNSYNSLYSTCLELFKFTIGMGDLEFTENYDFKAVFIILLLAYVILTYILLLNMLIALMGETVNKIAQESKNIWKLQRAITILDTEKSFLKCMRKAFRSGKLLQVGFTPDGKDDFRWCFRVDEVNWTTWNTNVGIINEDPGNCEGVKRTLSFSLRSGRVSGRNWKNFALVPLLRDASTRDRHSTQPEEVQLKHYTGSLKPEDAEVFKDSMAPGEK", "experiment": "Calcium imaging of DRG neurons, response to capsaicin (CAP)", "format": "cell-based", "settings": "peptide 200 nM pretreatment; 100 nM CAP; IB4-negative DRG neurons", "description": "Calcium imaging assays were performed as previously described (Liu et al., 2009). Cells were loaded with 2 μM fura 2-acetomethoxy ester (Molecular Probes) for 30 min in the dark at room temperature or for 45 minutes at 37° C. for DRG and cell lines, respectively. After washing, cells were imaged at 340 and 380 nm excitation to detect intracellular free calcium under a fluorescent microscope (Nikon Eclipse TE2000-S) and Lambda 10B shutter (Sutter Instrument). The cells were bathed in calcium imaging buffer (pH 7.45, 130 mM NaCl, 3 mM KCl, 2.5 mM CaCl2, 10 mM HEPES, 10 mM glucose, 1.2 mM NaHCO3, with sucrose to increase osmolarity to 290 mOsm). […] Images were processed and analyzed with NIS-Elements BR 2.30 software (Nikon). […] The data was analyzed with the experimenter blinded to the genotypes or constructs transfected.\nDRG from 3 to 4-week old mice were collected in cold DH10 medium (90% DMEM/F-12, 10% FBS, 100 U/ml penicillin, and 100 μg/ml Streptomycin, Gibco) and treated with enzyme solution in HBSS containing collagenase (1.65 mg/mL, Worthington CLS I) and dispase (3.55 mg/mL, GIBCO 17105-041) at 37° C. for 30 minutes. […] This efficiency was determined by mCherry(+) divided by total number of cells in the bright fields. […]"}, "[1]": {"tested_on": "CFA-induced hyperalgesia in mice", "experiment": "CFA injection: mechanical (von Frey) and thermal (Hargreaves) hyperalgesia", "format": "in vivo, mouse", "settings": "peptide 5 μl of 2 mM; 3 hours after treatment", "description": "Mice were placed in a transparent plastic box (4.5×5×10 cm) on a metal mesh and acclimatized for 30 minutes prior to testing. Each mouse was tested more than 5 times at a specific force manually, and the threshold was determined by the lowest force needed to elicit responses more than 50% of the time.\nMice were placed under a transparent plastic box (4.5×5×10 cm) on a glass platform (Plantar Test Apparatus, IITC Life Science). Radiant heat was adjusted to 18% of maximal output and shone on the center of the paws. Each mouse was tested more than 3 times, with each test performed 20 minutes apart.\nMice were injected with 6 μL of 50% emulsified Complete Freund's Adjuvant (Sigma, F5881) in normal saline.\nThe sequence from the last 28 amino acids of the C-terminus of the Tmem100-3Q mutant protein was synthesized and myristoylated at its N-terminus (myr-[…]-COOH) (SEQ ID NO: 8) by Twentyfirst Century Biochemicals. […] For the calcium imaging assay, the peptides were added to the calcium imaging buffer with a final concentration of 200 nM and incubated for at least […] at room temperature. For the mice behavioral assays, the peptides (5 μL, 2 mM) were injected subcutaneously in the hindpaw at least 30 minutes before testing. For the rat behavior assays, human T100-3Q (h-T100), a palmitoylated cell permeable peptide mutated based on the C terminus of human sequence in Tmem100, was applied. […]"}},
  "note": "* marks the point of attachment. Myristoyl = CCCCCCCCCCCCCC(=O)*",
  "data": [
    {"substance": "myr-QRVLEQVLQNWSRRANVKQAQKFQVKCT-COOH (Myristoyl-QRVLEQVLQNWSRRANVKQAQKFQVKCT-OH; SMILES CCCCCCCCCCCCCC(=O)N[C@@H](CCC(N)=O)C(=O)N[C@@H](CCCNC(=N)N)C(=O)N[C@H](C(=O)N[C@@H](CC(C)C)C(=O)N[C@@H](CCC(=O)O)C(=O)N[C@@H](CCC(N)=O)C(=O)N[C@H](C(=O)N[C@@H](CC(C)C)C(=O)N[C@@H](CCC(N)=O)C(=O)N[C@@H](CC(N)=O)C(=O)N[C@@H](Cc1c[nH]c2ccccc12)C(=O)N[C@@H](CO)C(=O)N[C@@H](CCCNC(=N)N)C(=O)N[C@@H](CCCNC(=N)N)C(=O)N[C@@H](C)C(=O)N[C@@H](CC(N)=O)C(=O)N[C@H](C(=O)N[C@@H](CCCCN)C(=O)N[C@@H](CCC(N)=O)C(=O)N[C@@H](C)C(=O)N[C@@H](CCC(N)=O)C(=O)N[C@@H](CCCCN)C(=O)N[C@@H](Cc1ccccc1)C(=O)N[C@@H](CCC(N)=O)C(=O)N[C@H](C(=O)N[C@@H](CCCCN)C(=O)N[C@@H](CS)C(=O)N[C@H](C(=O)O)[C@@H](C)O)C(C)C)C(C)C)C(C)C)C(C)C) [scrambled]", "values": [
      {"measurement": "percentage of DRG neurons responding to CAP", "setting": "TRPV1", "value": "16±1.3", "unit": "%"},
      {"measurement": "CFA-induced mechanical hyperalgesia (mechanical threshold)", "setting": "[1]", "value": "0.05 ± 0.0", "unit": "g"},
      {"measurement": "CFA-induced thermal hyperalgesia (latency)", "setting": "[1]", "value": "3.9 ± 0.6", "unit": "s"}
    ]}
  ]
}
